Assay results reported in ChEMBL document CHEMBL1201862, “PubChem BioAssay data set” (2004).
Calls of active or inactive are those of the source.

How the values were obtained:
[1] = target: T1, Heat shock 70 kDa protein 1A (Homo sapiens, UniProt P0DMV8); experiment: Hsp70 inhibitors, probe displacement, primary screen, biochemical, fluorescence polarization (AID 583)
[2] = target: T1, Heat shock 70 kDa protein 1A; experiment: Hsp70 inhibitors, biochemical, TR-FRET (AID 786)
Vero [3] = experiment: cytotoxicity of synthesized analogs in Vero cells, SAR follow-up, cytotoxicity control for West Nile virus antiviral project, cell-based, set II (AID 2402); type: functional; conditions: Chlorocebus sabaeus
Vero [4] = experiment: cytotoxicity of synthesized analogs in Vero 76, SAR follow-up, cytotoxicity control for West Nile virus antiviral project, Vero 76 cells (AID 2414); type: functional; conditions: Chlorocebus sabaeus
[5] = A Cell Based Assay for the Identification of Probe candidate Compounds with Anti- Venezuelan Equine Encephalitis virus. [Related pubchem assays: 2409, 2419, 1621, 2238, 2405, 2024, 2065, 2402, 2414, 1635, 1650, 2244 ]; type: functional
cells [6] = type: functional, cell-based
HT-1080 = experiment: cytotoxicity in HT1080 fibrosarcoma cells, cell-based, fluorescence readout (AID 620); type: functional; conditions: Homo sapiens
[7] = target: T2, Luciferin 4-monooxygenase (Photinus pyralis, UniProt P08659); experiment: firefly luciferase enzyme inhibitors, dose response, biochemical, luminescence (AID 1891)
cells [8] = type: functional, cell-based; remark: listed apart in the source
[9] = target: T3, Oxysterols receptor LXR-beta (Homo sapiens, UniProt P55055); type: functional, cell-based;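 further: agonist activity at LXR measured by a cell-based luminescence readout across a dose range, run as a counterscreen for daf-12 agonists; HEK293 cells with Gal4-LXR fusion and GAL4-driven luciferase reporter; potency for activation of Gal4-LXR reporter so compounds are agonists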
T3 sequence (P55055 whole entry): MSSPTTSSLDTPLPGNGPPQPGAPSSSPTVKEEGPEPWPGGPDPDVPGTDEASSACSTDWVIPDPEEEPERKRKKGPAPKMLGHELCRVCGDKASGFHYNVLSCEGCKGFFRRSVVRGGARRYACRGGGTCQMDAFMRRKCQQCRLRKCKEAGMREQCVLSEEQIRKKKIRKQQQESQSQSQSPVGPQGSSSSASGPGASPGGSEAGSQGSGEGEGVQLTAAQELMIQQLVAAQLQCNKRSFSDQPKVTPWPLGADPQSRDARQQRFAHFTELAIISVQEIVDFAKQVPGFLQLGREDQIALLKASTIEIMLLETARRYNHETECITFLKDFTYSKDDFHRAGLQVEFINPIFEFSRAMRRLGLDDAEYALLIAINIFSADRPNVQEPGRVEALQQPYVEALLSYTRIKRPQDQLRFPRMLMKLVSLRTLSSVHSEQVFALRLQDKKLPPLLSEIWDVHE

[10] = target: T2, Luciferin 4-monooxygenase; experiment: Counter Screen for Luciferase-based Assay Positives. [Related pubchem assays: 620, 618, 411 ]
Protein Rev = target: T4, Protein Rev (Human immunodeficiency virus type 1 group M subtype B (isolate WMJ22)(HIV-1), UniProt P05866); experiment: HIV-1 Rev-RRE RNA binding disruptors, dose response, biochemical, protein-RNA interaction (AID 842); design: species or system Human immunodeficiency virus 1
T4 sequence (P05866 whole entry): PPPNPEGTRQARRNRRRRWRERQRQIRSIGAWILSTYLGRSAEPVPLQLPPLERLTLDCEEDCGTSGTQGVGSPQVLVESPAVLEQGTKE

[11] = target: T5, Trace amine-associated receptor 1 (Homo sapiens, UniProt Q96RJ0); experiment: Fluorescence-based cell-based high throughput dose response assay to identify agonists of the human trace amine associated receptor 1 (TAAR1).; type: functional
T5 sequence (Q96RJ0 whole entry): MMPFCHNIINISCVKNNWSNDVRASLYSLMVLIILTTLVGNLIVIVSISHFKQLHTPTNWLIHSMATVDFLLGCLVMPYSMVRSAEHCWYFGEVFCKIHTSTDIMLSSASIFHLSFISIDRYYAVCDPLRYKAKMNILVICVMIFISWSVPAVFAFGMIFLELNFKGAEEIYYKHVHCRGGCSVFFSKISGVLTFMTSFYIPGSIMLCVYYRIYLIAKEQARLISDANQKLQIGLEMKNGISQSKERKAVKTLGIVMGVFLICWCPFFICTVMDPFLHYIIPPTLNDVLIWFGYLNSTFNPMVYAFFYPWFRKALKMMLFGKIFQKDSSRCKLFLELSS

[12] = Luminescence Cell-Based Dose Confirmation HTS to Identify Inhibitors of Platelet Dense Granule Release. [Related pubchem assays: 1663 (Primary HTS), 1678 (Summary of Project)]; type: functional
[13] = target: T5, Trace amine-associated receptor 1; experiment: Counterscreen for agonists of the human trace amine associated receptor 1 (hTAAR1): Fluorescence-based cell-based high throughput dose response assay to identify hTAAR1 agonist that also desensitize TAAR1 receptor response.; type: functional

T1 sequence (P0DMV8 whole entry): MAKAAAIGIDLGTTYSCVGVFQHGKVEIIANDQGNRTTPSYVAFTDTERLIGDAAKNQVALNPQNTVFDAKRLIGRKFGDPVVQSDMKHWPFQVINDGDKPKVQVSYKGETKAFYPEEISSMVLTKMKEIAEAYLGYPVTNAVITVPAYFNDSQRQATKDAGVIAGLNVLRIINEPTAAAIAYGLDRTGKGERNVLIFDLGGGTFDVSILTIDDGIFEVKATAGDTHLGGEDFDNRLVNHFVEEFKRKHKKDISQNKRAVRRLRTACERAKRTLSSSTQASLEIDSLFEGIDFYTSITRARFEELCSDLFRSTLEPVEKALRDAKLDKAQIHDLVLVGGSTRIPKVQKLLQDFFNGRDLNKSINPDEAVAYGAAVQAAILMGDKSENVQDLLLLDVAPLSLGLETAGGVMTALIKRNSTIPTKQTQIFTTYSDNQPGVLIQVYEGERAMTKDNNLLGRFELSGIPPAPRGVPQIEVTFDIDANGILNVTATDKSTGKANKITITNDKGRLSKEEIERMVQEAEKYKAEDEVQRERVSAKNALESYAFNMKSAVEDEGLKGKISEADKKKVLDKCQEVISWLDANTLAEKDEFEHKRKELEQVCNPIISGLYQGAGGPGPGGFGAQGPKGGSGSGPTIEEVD
T2 sequence (P08659 whole entry): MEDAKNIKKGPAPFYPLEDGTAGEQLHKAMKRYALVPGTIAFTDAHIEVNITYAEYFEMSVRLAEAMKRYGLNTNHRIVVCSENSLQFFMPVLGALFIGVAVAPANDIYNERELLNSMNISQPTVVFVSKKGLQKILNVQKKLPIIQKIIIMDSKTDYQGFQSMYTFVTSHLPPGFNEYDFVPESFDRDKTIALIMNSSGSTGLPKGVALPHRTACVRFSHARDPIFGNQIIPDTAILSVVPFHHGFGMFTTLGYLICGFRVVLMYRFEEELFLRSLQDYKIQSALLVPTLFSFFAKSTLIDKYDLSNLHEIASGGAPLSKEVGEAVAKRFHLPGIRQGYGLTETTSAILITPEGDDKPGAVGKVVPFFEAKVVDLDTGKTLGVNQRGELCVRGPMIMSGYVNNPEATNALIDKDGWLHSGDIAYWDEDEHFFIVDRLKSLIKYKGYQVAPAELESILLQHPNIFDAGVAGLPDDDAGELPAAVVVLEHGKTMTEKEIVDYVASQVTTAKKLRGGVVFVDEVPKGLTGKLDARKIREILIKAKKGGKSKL

Cc1ccnc2c(N3C(=O)C4C5C=CC(C5)C4(C)C3=O)cccc12 (stereo not given)
IC50 [1]: > 100 µM (not active) | IC50 [2]: > 100 µM (not active)

C=CCN(C(=O)c1ccccc1Cl)c1nc(-c2ccc(OC)cc2)cs1
CC50 (Vero [3]): 11.1 µM (active) | CC50 (Vero [4]): 24 µM (active) | IC50 [5]: 50.1 µM (active)

Nc1nc(Nc2ccc(Cl)cc2)nc2ccccc12
EC50 (cells [6]): > 29.9 µM (inactive) | EC50 (HT-1080): > 50 µM (not active) | EC50 [7]: 0.347 µM (active) | IC50 (cells [8]): > 29.9 µM (inactive) | EC50 [9]: > 67.5 µM (inactive) | EC50 [10]: 1.8 µM (active) | IC50 (Protein Rev): > 79.4 µM (not active) | EC50 [11]: 19.2 µM (inactive) | EC50 [12]: 2.37 µM (active) | IC50 [13]: 9.98 µM (active)
